According to patent publication US9248130B2, “Methods and compositions for treating thyroid-related medical conditions with reduced folates” (priority 2009, dated 2016):

Key:
Type in all cases: in vivo, human
[1] = Cerebrospinal folate levels in patient with cerebrospinal folate deficiency (case report); conditions: patient Example 2; folinic acid 5 mg twice per day; within approximately four months; rose from 32 L; preferred range 40-128
Description: Example 1 was tested for cerebrospinal folate deficiency approximately four months after Example 2's testing. […] Studies have shown that the earlier the anemias associated with cerebrospinal folate deficiency are addressed, the better the adversely impacted individual can overcome more long-term effects of the associated folate deficiency.
After Example 2's diagnosis, Example 2 was placed on 5-methyltetrahydrofolate in the form of folinic acid (5 mg twice per day).

[2] = Physical, behavioral and social skills of patient with cerebrospinal folate deficiency (case report); conditions: patient Example 2; after treatment
[3] = Hematological response (reticulocytes) in hypothyroid infant patient (case report); conditions: patient Example 1; additional nutritional supplement containing 2 mcg of vitamin B12
Text: Example 1 and Example 2 received different nutritional supplementation with respect to vitamin B12. Although Example 2 did receive the same infant milk formula that Example 1 received, which infant milk formula contained vitamin B12, Example 2 received less of the infant milk formula than Example 1, and Example 2 received in lieu of the infant milk formula more of the breast milk from the hypothyroid […]. Example 1 also received an additional multivitamin nutritional supplement that included 2 mcg of vitamin B12.

Row | Molecule | cerebrospinal folate levels [1] | physical, behavioral and social skills [2] | hematological response: reticulocytes [3]
1 | Nc1nc2c(c(=O)[nH]1)N(C=O)C(CNc1ccc(C(=O)N[C@@H](CCC(=O)O)C(=O)O)cc1)CN2 (stereo partly drawn) [folinic acid, 6(R,S)-5-formyltetrahydrofolate] | approximately 88 | showed improvement | 
2 | cobalamin [vitamin B12] |  |  | moving from below normal to normal
